# Experimental data reported in publication PMC11402896, “Developmental toxicity and estrogenic activity of antimicrobial phenolic-branched fatty acids using in silico simulations and in vivo and in vitro bioassay” (Frontiers in Toxicology, 2024).
# Columns and labels:
# chicken embryos = test system: chicken embryos; set-up: method as in Zhang et al., 2021; conditions: ref Zhang et al., 2021, cited from earlier work; for Mortality rate: chicken embryos, 50 μg/kg dosage
# chicken embryo = assay: Chicken embryonic assay (developmental toxicity, liver TBARS); type: in vivo; conditions: for LSI (%) (liver somatic index) / REEW (ratio of embryo to egg weight) / Weights (g) Embryo / Weights (g) Heart / Weights (g) Liver: mean ± SD
# Protocol: In total, 124 fertilized Leghorn eggs were obtained from the University of Delaware research farm. […] On day 6, the eggs were candled, and a hole was drilled for injection of each chemical at two dosage levels, or VC at 0.2 mL. The hole was sealed with Duco Cement, and eggs were placed back in the egg incubator at 38°C and 60% relative humidity. Each test was repeated in two independent trials. The incubation ended on day 18, and the number of dead embryos was recorded during the incubation period. All embryos were dissected and evaluated for deformation, embryo mass, liver mass, heart mass, ratio of embryo to egg weight (REEW), liver somatic index (LSI), and TBARS levels as described in ([Zhang and Wu, 2022]). Each test was repeated in two independent trials and in duplicate for each trial.
# (§1) All data were reported as the mean ± standard deviation (SD) of at least two independent trials. The MCF-7 cell proliferation rates of each compound at different concentrations were compared using a one-way analysis of variance (ANOVA) followed by Dunnett’s test with the statistical software JMP 16.0. The developmental indexes (REEW, LSI, weights) and TBARS values obtained from chicken embryonic assays were evaluated by a one-way ANOVA followed by Dunnett’s test performed with JMP.
# The developmental toxicity of phenolic-soy BCFAs was evaluated at dosages reported for natural phenolics via a chicken embryo model ([Zhang et al., 2021]; [Zhang and Wu, 2022]). In the present study, 0.1% DMSO in PBS was used as VC.
# [1] = test system: gastric adenocarcinoma cells; set-up: method as in Günes-Bayir et al., 2018; conditions: dose-dependent manner at 0–100 µM; ref Günes-Bayir et al., 2018; cited from earlier work
# human fibroblast (WS-1) = test system: human fibroblast (WS-1); set-up: method as in Günes-Bayir et al., 2018; conditions: dose-dependent manner at 0–100 µM; ref Günes-Bayir et al., 2018; cited from earlier work
# [2] = test system: estrogen signaling pathway; conditions: cited from earlier work
# MCF-7 cells = assay: MCF-7 cell proliferation assay (estrogenic activity); type: cell-based; conditions: 10 and 100 nM, p < 0.05, positive control
# Protocol: MCF-7 cells were grown and maintained as previously described ([Peng et al., 2018]). The EA of creosote, creosote-soy BCFA, and iso-oleic acid was investigated at 10 nM to 1 μM. We evaluated EA for newly synthesized phenolic soy BCFAs with a focus on those who have both good performances in antimicrobial activity and low developmental toxicity in the chicken embryo model. Chemicals were dissolved in DMSO and diluted to the test concentrations (0.1% DMSO). No treatment and VC (0.1% DMSO in cell medium) were included as controls. Fresh medium with test compounds was added on day 2 and refreshed every 2 days. After 6-day exposure, cell numbers were measured by MTT assay using a microplate spectrophotometer ([Peng et al., 2018]). The test was repeated in two independent trials with triplicates for each trial, and cell proliferation rates were calculated for each compound.
# as §1
# [3] = chicken embryo day 18, dosage 3.1 μg/kg
# [4] = chicken embryo day 18, dosage 31 μg/kg
# [5] = chicken embryo day 18, egg injection day 6, dosage 3.1 μg/kg
# [6] = chicken embryo day 18, egg injection day 6, dosage 31 μg/kg
# [7] = chicken embryo day 18, egg injection day 6, dosage 31 μg/kg, listed as phenol
smiles,measurement,setting,value
Cc1ccc(C(C)C)c(O)c1 [Thymol],Mortality rate,chicken embryos,no death was found
Oc1ccccc1 [Phenol],LSI (%) (liver somatic index),chicken embryo; [3],2.20 ± 0.25%
same,REEW (ratio of embryo to egg weight),chicken embryo; [3],0.39 ± 0.014
same,Weights (g) Embryo,chicken embryo; [3],23.61 ± 2.74 g
same,Weights (g) Heart,chicken embryo; [3],0.21 ± 0.03 g
same,Weights (g) Liver,chicken embryo; [3],0.52 ± 0.12 g
same,LSI (%) (liver somatic index),chicken embryo; [4],2.23 ± 0.23%
same,REEW (ratio of embryo to egg weight),chicken embryo; [4],0.36 ± 0.029
same,Weights (g) Embryo,chicken embryo; [4],22.04 ± 2.54 g
same,Weights (g) Heart,chicken embryo; [4],0.22 ± 0.01 g
same,Weights (g) Liver,chicken embryo; [4],0.52 ± 0.04 g
same,Malformation rate (%),chicken embryo; [5],0.0 (0) %
same,Mortality rate (%),chicken embryo; [5],0.0 (0) %
same,Mortality rate (%),"chicken embryo; chicken embryo day 18, egg injection day 6, dosage 3.1 μg/kg, listed as phenol",no mortality
same,Malformation rate (%),chicken embryo; [6],12.5 (1) %
same,Mortality rate (%),chicken embryo; [6],0.0 (0) %
same,Malformation rate (%),chicken embryo; [7],deformed embryos (stunting) were observed
same,Mortality rate (%),chicken embryo; [7],no mortality
Cc1ccc(C(C)C)cc1O [Carvacrol],TBARS levels in fetal chicken liver,chicken embryos; 50 μg/kg,significantly increased TBARS levels
same,Mortality rate,chicken embryos,45.5%
same,Reactive oxygen species generation,[1],induced reactive oxygen species generation
same,Reactive oxygen species generation,human fibroblast (WS-1),induced reactive oxygen species generation
same,Estrogenic activity (EA),"[2]; at 10^–12 M, ref Zhang et al., 2021",weak EA
"C[C@]12CC[C@@H]3c4ccc(O)cc4CC[C@H]3[C@@H]1CC[C@@H]2O [E2, 17β-Estradiol]",Cell proliferation rate compared with no treatment and VC,MCF-7 cells,significantly increased cell proliferation rates
same,Concentration of highest EA,"[2]; across the test range from 10^–15 to 10^–4 M, ref Peng et al., 2018",10 nM
same,Concentration of peak EA,"[2]; our previous findings, ref not given",10^−9 M
